We go through 22 compounds from patent US20240059691A1 (KALVISTA PHARMACEUTICALS LIMITED, priority 2020, published 2024).

What is called IC50 is the concentration that inhibits the measured activity by half.

The structures appear in SMILES notation.

Experiment [1] addresses Human Factor XIIa (Homo sapiens (Human), UniProt P00748). Description: Determination of FXIIa inhibition (fluorogenic substrate H-DPro-Phe-Arg-AFC, IC50 assay). To be noted: substrate H-DPro-Phe-Arg-AFC at Km, 25° C.; class scale A-G. The format is biochemical. Summed up: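 Human FXIIa incubated at 25° C with fluorogenic substrate H-DPro-Phe-Arg-AFC at its Km concentration and varying compound concentrations. Fluorescence release monitored over 5 min at 25° C; linear rate expressed as % of uninhibited activity to derive IC50.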

The target in experiment [2] is Plasma Kallikrein (Homo sapiens (Human), UniProt P03952). Description: Determination of related protease inhibition: Plasma Kallikrein (fluorogenic substrate at Km). The class given is biochemical. The settings on record: 25° C., read-out: IC50 (human PKal). The procedure, abridged:
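Human enzymes incubated with varied inhibitor concentrations and fluorogenic substrate at Km. Fluorescence release followed over 5 min at 25 °C; linear rate expressed as % activity, IC50 as inhibitor concentration giving 50% inhibition of uninhibited enzyme.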

Human Factor XIIa, sequence (P00748 373-615): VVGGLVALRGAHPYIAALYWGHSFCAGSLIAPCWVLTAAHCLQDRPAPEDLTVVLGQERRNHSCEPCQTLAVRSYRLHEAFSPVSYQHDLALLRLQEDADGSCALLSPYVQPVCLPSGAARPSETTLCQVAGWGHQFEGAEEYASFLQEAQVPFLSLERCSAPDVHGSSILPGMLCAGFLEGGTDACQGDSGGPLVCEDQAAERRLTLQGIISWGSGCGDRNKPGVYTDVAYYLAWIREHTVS
Plasma Kallikrein, sequence (P03952 391-638): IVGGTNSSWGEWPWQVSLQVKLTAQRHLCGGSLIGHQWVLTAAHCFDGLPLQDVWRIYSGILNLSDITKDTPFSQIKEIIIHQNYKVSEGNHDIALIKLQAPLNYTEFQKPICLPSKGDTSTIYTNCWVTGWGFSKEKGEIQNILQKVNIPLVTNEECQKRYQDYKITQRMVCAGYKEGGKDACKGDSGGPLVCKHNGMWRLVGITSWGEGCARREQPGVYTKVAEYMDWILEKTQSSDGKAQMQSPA
Plasma Kallikrein, sequence (P03952 20-390 partner): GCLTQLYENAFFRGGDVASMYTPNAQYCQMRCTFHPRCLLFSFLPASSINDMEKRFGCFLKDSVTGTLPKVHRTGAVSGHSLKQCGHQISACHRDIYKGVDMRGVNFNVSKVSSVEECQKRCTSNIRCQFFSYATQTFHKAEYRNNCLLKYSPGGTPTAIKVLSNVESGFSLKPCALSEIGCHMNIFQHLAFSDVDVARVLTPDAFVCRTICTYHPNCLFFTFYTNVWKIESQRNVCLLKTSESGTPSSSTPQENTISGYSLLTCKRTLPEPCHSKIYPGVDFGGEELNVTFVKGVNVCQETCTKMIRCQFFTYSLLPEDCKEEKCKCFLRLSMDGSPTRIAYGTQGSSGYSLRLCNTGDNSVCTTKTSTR

Turning to `Cc1n[nH]c2c1CCC2Nc1ccc(CNc2ccc3c(N)ncc(Cl)c3c2)cn1` (centres unmarked) [Example 1118, 4-chloro-6-N-{[6-({3-methyl-1H,4H,5H,6H-cyclopenta[c]pyrazol-6-yl}amino)pyridin-3-yl]methyl}isoquinoline-1,6-diamine], the IC50 was 10 to 40 µM in experiment [1] and > 40 µM in experiment [2].
As for `CC(C)N1CCC(CN(CCCO)C(=O)c2cccc(CNc3cccc4c(N)nccc34)c2)CC1` [Example 5441, 3-(((1-aminoisoquinolin-5-yl)amino)methyl)-N-(3-hydroxypropyl)-N-((1-isopropylpiperidin-4-yl)methyl)benzamide], the concentration for half-maximal inhibition (IC50) was 3 to 10 µM in experiment [1] and > 40 µM in experiment [2].
The matching figures for `CN1CCC(CNc2ccc(CNc3ccc4cncc(Cl)c4c3)cn2)CC1` [Example 1188, 4-chloro-N-((6-(((1-methylpiperidin-4-yl)methyl)amino)pyridin-3-yl)methyl)isoquinolin-6-amine]: 40 to 100 µM and > 100 µM.
For the compound `Nc1nccc2c(NCc3ccnc(OC4CCn5ccnc5C4)c3)cccc12` (centres unmarked) [Example 4306, 5-N-[(2-{5H,6H,7H,8H-imidazo[1,2-a]pyridin-7-yloxy}pyridin-4-yl)methyl]isoquinoline-1,5-diamine], the half-maximal inhibitory concentration (IC50) in experiment [1] was in the range of 1 to 3 µM; in experiment [2], 10 to 40 µM.
Regarding `Nc1nccc2c(NCc3ccc(N4CC5(CC(O)c6nccn65)C4)cc3)cccc12` (centres unmarked) [Example 2253, 1-(4-(((1-aminoisoquinolin-5-yl)amino)methyl)phenyl)-6′,7′-dihydrospiro[azetidine-3,5′-pyrrolo[1,2-a]imidazol]-7′-ol], the IC50 is 3 to 10 µM in experiment [1] and > 40 µM in experiment [2].
Turning to `CC1c2nccn2CCN1c1ccc(CNc2cccc3c(N)nccc23)cn1` (centres unmarked) [Example 1150, N5-((6-(8-methyl-5,6-dihydroimidazo[1,2-a]pyrazin-7(8H)-yl)pyridin-3-yl)methyl)isoquinoline-1,5-diamine], the IC50 in experiment [1] was 0.3 to 1 µM; in experiment [2], > 40 µM.
The matching figures for `Nc1nccc2c(NCc3ccc(N4CCC(CC(F)F)C4)nc3)cccc12` (centres unmarked) [Example 1265, N5-((6-(3-(2,2-difluoroethyl)pyrrolidin-1-yl)pyridin-3-yl)methyl)isoquinoline-1,5-diamine]: 3 to 10 µM and > 40 µM.
With `Nc1ncc(Cl)c2cc(NCc3ccnc(OCC4CCn5c(CO)cnc5C4)c3)ccc12` (centres unmarked) [Example 4448, (7-(((4-(((1-amino-4-chloroisoquinolin-6-yl)amino)methyl)pyridin-2-yl)oxy)methyl)-5,6,7,8-tetrahydroimidazo[1,2-a]pyridin-3-yl)methanol], the IC50 in experiment [1] was 0.3 to 1 µM; in experiment [2], > 40 µM.
`CN1CCC(OCc2ccc(COc3ccc4c(N)nccc4c3)cc2)CC1` [Example 1011, 6-((4-(((1-Methylpiperidin-4-yl)oxy)methyl)benzyl)oxy)isoquinolin-1-amine]: the IC50 fell in the range of 3 to 10 µM in experiment [1] and 10 to 40 µM in experiment [2].
Take `CC(C)(O)c1cnc2n1CCN(c1ccc(CNc3cccc4c(N)nccc34)cn1)C2` [Example 1167, 2-(7-(5-(((1-aminoisoquinolin-5-yl)amino)methyl)pyridin-2-yl)-5,6,7,8-tetrahydroimidazo[1,2-a]pyrazin-3-yl)propan-2-ol]: the IC50 was 3 to 10 µM in experiment [1] and > 40 µM in experiment [2].
The matching figures for `Nc1nccc2c(NCc3ccc(NCCc4nccn4C(F)F)nc3)cccc12` [Example 1181, N5-((6-((2-(1-(difluoromethyl)-1H-imidazol-2-yl)ethyl)amino)pyridin-3-yl)methyl)isoquinoline-1,5-diamine]: 10 to 40 µM and > 40 µM.
The matching figures for `CN1CCC(CNc2ccc(CNc3ccc4cccnc4c3)cn2)CC1` [Example 1184, N-((6-(((1-methylpiperidin-4-yl)methyl)amino)pyridin-3-yl)methyl)quinolin-7-amine]: 10 to 40 µM and > 100 µM.
As for `Cc1n[nH]c2c1CCC2Nc1ccc(CNc2cccc3c(N)nccc23)cn1` (centres unmarked) [Example 1119, N5-((6-((3-methyl-1,4,5,6-tetrahydrocyclopenta[c]pyrazol-6-yl)amino)pyridin-3-yl)methyl)isoquinoline-1,5-diamine], the IC50 in experiment [1] and in experiment [2] was 10 to 40 µM in each case.
As for `CC(C)(O)c1cn2c(n1)CN(c1ccc(CNc3cccc4c(N)nccc34)cn1)CC2` [Example 1163, 2-(7-(5-(((1-aminoisoquinolin-5-yl)amino)methyl)pyridin-2-yl)-5,6,7,8-tetrahydroimidazo[1,2-a]pyrazin-2-yl)propan-2-ol], the values for the IC50 in experiment [1] and in experiment [2] were 3 to 10 µM and > 40 µM, respectively.
With `CC(C)N1CC2CCC(C1)C2COc1cc(CNc2cccc3c(N)nccc23)ccn1` (centres unmarked) [Example 4297, N5-((2-((3-isopropyl-3-azabicyclo[3.2.1]octan-8-yl)methoxy)pyridin-4-yl)methyl)isoquinoline-1,5-diamine], the IC50 was 0.1 to 0.3 µM in experiment [1] and > 4 µM in experiment [2].
With `CN1CCC(CNc2ccc(CNc3ccc4cncc(N5CCCCC5)c4c3)cn2)CC1` [Example 1198, N-((6-(((1-methylpiperidin-4-yl)methyl)amino)pyridin-3-yl)methyl)-4-(piperidin-1-yl)isoquinolin-6-amine], the IC50 is 40 to 100 µM in experiment [1] and > 40 µM in experiment [2].
Turning to `CN1CCC(CNc2ccc(CNc3cc(Cl)c4cnccc4c3)cn2)CC1` [Example 1208, 8-chloro-N-((6-(((1-methylpiperidin-4-yl)methyl)amino)pyridin-3-yl)methyl)isoquinolin-6-amine], the IC50 is 3 to 10 µM in experiment [1] and > 40 µM in experiment [2].
For `CN1CCC(CNc2ccc(CNc3cc(F)c4c(N)nccc4c3)cn2)CC1` [Example 1245, 8-fluoro-N6-((6-(((1-methylpiperidin-4-yl)methyl)amino)pyridin-3-yl)methyl)isoquinoline-1,6-diamine], the concentration for half-maximal inhibition (IC50) in experiment [1] and in experiment [2] was 3 to 10 µM in each case.
For `Cc1cn2c(n1)CC(COc1cc(CNc3ccc4c(N)ncc(Cl)c4c3)ccn1)CC2` (single isomer, unassigned) [Example 4442, (R*)-4-chloro-N6-((2-((2-methyl-5,6,7,8-tetrahydroimidazo[1,2-a]pyridin-7-yl)methoxy)pyridin-4-yl)methyl)isoquinoline-1,6-diamine], the half-inhibitory concentration (IC50) in experiment [1] was in the range of 0.3 to 1 µM; in experiment [2], 10 to 40 µM.
On to `Cc1cnc2n1CCC(COc1cc(CNc3cccc4c(N)nccc34)ccn1)C2` (centres unmarked) [Example 4320, N5-[[2-[(3-methyl-5,6,7,8-tetrahydroimidazo[1,2-a]pyridin-7-yl)methoxy]-4-pyridyl]methyl]isoquinoline-1,5-diamine], for which the values for the 50% inhibitory concentration (IC50) in experiment [1] and in experiment [2] were 0.1 to 0.3 µM and 3 to 10 µM, respectively.
Turning to `CN1CCC(CNc2ccc(CNc3cc(C#N)cc4[nH]ccc34)cn2)CC1` [Example 1256], the 50% inhibitory concentration (IC50) was 10 to 40 µM in experiment [1] and > 40 µM in experiment [2].
On to `CN1CCC(OCc2ccc(CNc3ccc4cnc(N)cc4c3)cc2)CC1` [Example 2189, N6-(4-(((1-methylpiperidin-4-yl)oxy)methyl)benzyl)isoquinoline-3,6-diamine], for which the concentration for half-maximal inhibition (IC50) in experiment [1] and in experiment [2] was 10 to 40 µM throughout.
